Where two headings read alike, the source gives them in different places.
Assays:
Assay type in all cases: cell-based
[1] = molecular target: T1, human TLR7 (Homo sapiens, UniProt Q9NYK1); assay: HEK/TLR7 activation assay (R848 stimulation); settings: HEK cells transfected with human TLR7
T1 construct: expressed in transfected cells; host or cells: HEK cell line (HEK293, as in the primary assay)
T1 sequence (Q9NYK1 27-1049): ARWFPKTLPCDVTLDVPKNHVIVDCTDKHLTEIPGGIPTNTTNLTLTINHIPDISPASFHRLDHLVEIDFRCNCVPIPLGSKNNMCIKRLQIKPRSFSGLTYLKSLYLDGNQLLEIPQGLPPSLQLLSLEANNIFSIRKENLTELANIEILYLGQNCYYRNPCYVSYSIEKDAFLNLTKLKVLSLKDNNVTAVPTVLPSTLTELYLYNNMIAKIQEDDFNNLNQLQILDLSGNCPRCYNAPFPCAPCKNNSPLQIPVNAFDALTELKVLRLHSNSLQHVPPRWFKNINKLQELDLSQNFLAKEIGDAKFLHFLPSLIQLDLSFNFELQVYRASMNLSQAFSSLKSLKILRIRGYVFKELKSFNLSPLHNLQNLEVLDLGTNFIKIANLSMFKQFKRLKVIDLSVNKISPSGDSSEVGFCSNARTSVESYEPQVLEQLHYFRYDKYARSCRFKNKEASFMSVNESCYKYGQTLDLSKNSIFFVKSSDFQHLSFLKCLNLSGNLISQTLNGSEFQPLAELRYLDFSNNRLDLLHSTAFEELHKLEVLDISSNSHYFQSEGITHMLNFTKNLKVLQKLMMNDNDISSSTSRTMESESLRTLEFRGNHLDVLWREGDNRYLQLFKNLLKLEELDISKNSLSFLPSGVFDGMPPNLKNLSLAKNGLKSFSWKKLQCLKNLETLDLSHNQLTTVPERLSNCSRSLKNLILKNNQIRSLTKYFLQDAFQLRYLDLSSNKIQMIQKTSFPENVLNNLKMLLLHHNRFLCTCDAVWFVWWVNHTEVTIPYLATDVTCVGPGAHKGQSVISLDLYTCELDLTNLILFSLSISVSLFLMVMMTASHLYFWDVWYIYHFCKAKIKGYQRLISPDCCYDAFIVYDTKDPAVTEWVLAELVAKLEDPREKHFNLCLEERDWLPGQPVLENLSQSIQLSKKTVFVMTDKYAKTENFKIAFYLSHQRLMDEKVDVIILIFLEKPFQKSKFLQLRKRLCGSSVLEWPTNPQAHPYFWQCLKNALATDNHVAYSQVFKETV
Description: (1) HEK/TLR7Activation Assay: The same compounds were tested in the same way as the primary assay with the following differences. The plasmid used to transfect the HEK cell line encoded for human TLR7 instead of TLR9, and R848 was used to stimulate the cells instead of Oligo CpG 2006.

[2] = molecular target: T2, human TLR9 (Homo sapiens, UniProt Q9NR96); assay: Primary assay: HEK/TLR9 activation (NF-kB luciferase reporter, Oligo CpG 2006 stimulation)
T2 construct: expressed in transfected cells; host or cells: HEK293 (ATCC No. CRP-1573 [sic])
T2 sequence (Q9NR96 26-1032): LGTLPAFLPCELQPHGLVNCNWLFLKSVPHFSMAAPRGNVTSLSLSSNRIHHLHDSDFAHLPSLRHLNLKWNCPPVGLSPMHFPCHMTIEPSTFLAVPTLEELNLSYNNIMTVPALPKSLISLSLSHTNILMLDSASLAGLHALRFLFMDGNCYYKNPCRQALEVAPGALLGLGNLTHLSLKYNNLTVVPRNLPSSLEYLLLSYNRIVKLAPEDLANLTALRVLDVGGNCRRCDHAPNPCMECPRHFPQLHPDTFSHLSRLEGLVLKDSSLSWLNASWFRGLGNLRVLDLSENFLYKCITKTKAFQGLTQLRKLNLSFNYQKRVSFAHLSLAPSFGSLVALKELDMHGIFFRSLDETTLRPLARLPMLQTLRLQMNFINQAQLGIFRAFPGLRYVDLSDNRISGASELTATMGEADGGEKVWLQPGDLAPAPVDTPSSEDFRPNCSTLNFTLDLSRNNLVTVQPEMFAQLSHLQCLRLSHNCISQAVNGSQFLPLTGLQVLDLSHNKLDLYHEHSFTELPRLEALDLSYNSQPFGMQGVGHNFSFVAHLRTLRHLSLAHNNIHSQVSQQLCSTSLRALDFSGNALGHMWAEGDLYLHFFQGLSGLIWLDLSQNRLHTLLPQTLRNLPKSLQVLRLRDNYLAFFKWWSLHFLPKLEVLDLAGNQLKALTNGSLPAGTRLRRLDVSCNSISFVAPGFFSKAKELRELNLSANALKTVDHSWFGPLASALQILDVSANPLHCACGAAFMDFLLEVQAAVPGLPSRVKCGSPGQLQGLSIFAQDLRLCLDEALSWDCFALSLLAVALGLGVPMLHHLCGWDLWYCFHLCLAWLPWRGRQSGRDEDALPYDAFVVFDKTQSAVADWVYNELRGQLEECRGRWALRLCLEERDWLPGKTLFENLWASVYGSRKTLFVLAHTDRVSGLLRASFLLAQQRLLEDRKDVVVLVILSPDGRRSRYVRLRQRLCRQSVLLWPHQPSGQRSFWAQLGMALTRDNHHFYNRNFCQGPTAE
Source text: A. Primary Assay. The primary assay involved transfecting human embryonic kidney epithelial (HEK) cells with TLR9. More specifically, HEK293 […] cells (ATCC No. CRP-1573, American Type Culture Collection, Manassas, Va.) were transfected with pcDNA3.1D/V5-His-TOPO® plasmid (Invitrogen, Carlsbad, Calif.) encoding human TLR9 (directly inserted as a Tag polymerase-amplified PCR product) and firefly luciferase under the control of three NF-kB binding sites contained in the E-selectin-1 promoter, which was cloned into a pGL3-Enhancer Vector (Promega Corp, Madison, Wis.). Each compound was added to cells 30 min. before stimulation with Oligo CpG 2006, a synthetic phosphorothioate oligonucleotide (Hartmann et al., J Immunol. 164:1617-24 (2000)), with nucleotide sequence 5′-TCGTCGTTTTGTCGTTTTGTCGTT-3′ (SEQ ID NO:1). The cells were incubated overnight at 37° C. The luciferase substrate Steady-Glo® (Promega) was added to the wells, and luminescence was measured to determine the extent of TLR9-driven gene activation. The luminescence data was used to calculate an IC50 for each sample. The IC50 is defined as the concentration of compound that suppresses the luminescence to 50% of that observed in the absence of compound, in other words, with full stimulation.

[3] = system: mouse spleen IL-6 production in response to Oligo CpG 1668; assay: Splenocyte CpG 1668 assay (IL-6 ELISA); settings: mouse splenocytes, Oligo CpG 1668, 72 hrs
Description: (2) Splenocyte CpG 1668 Assay: Some of the compounds tested in the primary assay were also assayed for suppression of mouse spleen IL-6 production in response to stimulation with Oligo CpG 1668, a synthetic phosphorothioate oligonucleotide (Krieg et al. Nature. 374:546-9 (1995)), with nucleotide sequence [NT] (SEQ ID NO:2). Each compound was added to dissociated splenocytes before addition of stimulatory oligonucleotide. Cells were stimulated in culture for 72 hrs and the supernatant was removed for ELISA analysis of IL-6 level. Here the IC50 is defined as the concentration of compound that suppresses cytokine production to 50% of that observed in the absence of compound, i.e., full stimulation.

[4] = system: dissociated mouse splenocytes; assay: Spleen CellTiter-Glo viability assay; settings: Splenocyte, 72 hours, viability (ATP)
Description: (3) Spleen CT Glo Assay: To determine if compounds had adverse effects on living cells, dissociated mouse splenocytes were incubated with some of the compounds for 72 hours. At the end of the incubation Celliter-Glo™ reagent (Promega Corporation, Madison, Wis.) was added and luminescence was read per manufacturer's instructions. This reagent measures ATP as an indication of cell metabolism. Dead cells will not produce signal. IC50 is defined as the concentration of compound that suppresses viability to 50% of that observed in the absence of compound. The few compounds that measurably affected viability did so at concentrations far above those that affected cytokine release in response to TLR9 stimulation.

[5] = HEK293 transfected with human TLR9 and NF-kB luciferase, compound 30 min before Oligo CpG 2006, overnight, read-out: HEK/TLR9 IC50
[6] = read-out: IC50 in the primary HEK/TLR9 assay

| IC50 [1] [µM] | IC50 [2, 5] [µM] | IC50 [3] [µM] | IC50 [2, 6] [µM] | Structure (SMILES) | IC50 [4] [µM] |
| --- | --- | --- | --- | --- | --- |
| 0.17 | 0.0053 | 0.006 | – | CN(C)[C@H]1CCN(CCCOc2ccc(-c3nc4ccc(OCCCN5CC[C@H](N(C)C)C5)cc4o3)cc2)C1 [Compound 17] | > 10 |
| 2 | 0.011 | – | – | CN(C)CCCOc1cccc(-c2nc3ccc(OCCCN(C)C)cc3o2)c1 [Compound 5] | – |
| – | 0.0182 | 0.048 | – | COC[C@@H]1CCCN1CCCOc1ccc(-c2nc3ccc(OCCCN4CCC[C@H]4COC)cc3o2)cc1 [Compound 25] | > 10 |
| > 2.5 | 0.038 | – | – | CN(C)CCOCCN(C)CCCOc1ccc(-c2nc3ccc(OCCCN(C)CCOCCN(C)C)cc3o2)cc1 [Compound 36] | – |
| 0.35 | 0.0153 | 0.026 | – | CC(C)(CN1CCOCC1)NCCCOc1ccc(-c2nc3ccc(OCCCNC(C)(C)CN4CCOCC4)cc3o2)cc1 [Compound 10] | 9.8 |
| 0.58 | 0.0096 | 0.01 | – | CCN(CC)CCN(CC)CCCOc1ccc(-c2nc3ccc(OCCCN(CC)CCN(CC)CC)cc3o2)cc1 [Compound 32] | > 10 |
| 1.24 | 0.0133 | – | – | CCN(C)CCCOc1ccc(-c2nc3ccc(OCCCN(C)CC)cc3o2)cc1 [Compound 21] | 9.58 |
| 1.8 | 0.012 | – | – | CN(C)CCCOc1ccc2nc(-c3ccccc3OCCCN(C)C)oc2c1 [Compound 4] | – |

Further lines, the compound ahead of its results:

| Structure (SMILES) | IC50 [1] [µM] | IC50 [2, 5] [µM] | IC50 [3] [µM] | IC50 [2, 6] [µM] | IC50 [4] [µM] |
| --- | --- | --- | --- | --- | --- |
| O[C@H]1CC[C@H](NCCCOc2ccc(-c3nc4ccc(OCCCN[C@H]5CC[C@H](O)CC5)cc4o3)cc2)CC1 [Compound 6] | 8.41 | 0.0202 | – | – | – |
| c1cc(-c2nc3ccc(OCCCN4CCC[C@H]4CN4CCCC4)cc3o2)ccc1OCCCN1CCC[C@H]1CN1CCCC1 [Compound 24] | 0.6 | 0.0064 | 0.008 | – | > 10 |
| COCCN(C)CCCOc1ccc(-c2nc3ccc(OCCCN(C)CCOC)cc3o2)cc1 [Compound 18] | 1.4 | 0.0192 | – | – | 9.9 |
| c1cc(-c2nc3ccc(OC4CCNC4)cc3o2)ccc1OC1CCNC1 (stereo not drawn) [Comparator, reference compound] | 2.69 | – | 1.02 | 0.16 | – |
| CN(C)CCCNCCCOc1ccc(-c2nc3ccc(OCCCNCCCN(C)C)cc3o2)cc1 [Compound 9] | 9.05 | 0.12 | – | – | – |
| CCCN(C)CCCOc1ccc(-c2nc3ccc(OCCCN(C)CCC)cc3o2)cc1 [Compound 29] | 0.78 | 0.0193 | 0.042 | – | 10.4 |
| CN(C)CCCOCCCN(C)CCCOc1ccc(-c2nc3ccc(OCCCN(C)CCCOCCCN(C)C)cc3o2)cc1 [Compound 37] | > 2.5 | 0.03 | – | – | – |
| CCOCCN1CCN(CCCOc2ccc(-c3nc4ccc(OCCCN5CCN(CCOCC)CC5)cc4o3)cc2)CC1 [Compound 15] | 2.24 | 0.0232 | – | – | > 10 |
| CN(C)CCCCN(C)CCCOc1ccc(-c2nc3ccc(OCCCN(C)CCCCN(C)C)cc3o2)cc1 [Compound 38] | > 2.5 | 0.034 | – | – | – |
| COCCNCCCOc1ccc(-c2nc3ccc(OCCCNCCOC)cc3o2)cc1 [Compound 7] | 1.31 | 0.0233 | – | – | > 10 |
| c1cc(N2CCN(CCCOc3ccc(-c4nc5ccc(OCCCN6CCN(c7ccncc7)CC6)cc5o4)cc3)CC2)ccn1 [Compound 19] | 1.1 | 0.0276 | – | – | 10 |
| C1=CCN(CCCOc2ccc(-c3nc4ccc(OCCCN5CC=CCC5)cc4o3)cc2)CC1 [Compound 28] | 1.55 | 0.0125 | – | – | > 10 |
| CN(C)CCCCCOc1ccc(-c2nc3ccc(OCCCCCN(C)C)cc3o2)cc1 [Compound 3] | 1.4 | 0.023 | – | – | – |
| CN(C)CCOc1ccc(-c2nc3ccc(OCCN(C)C)cc3o2)cc1 [Compound 1] | 7.8 | 0.031 | 0.29 | 0.06 | – |
| c1ccc(CNCCCOc2ccc(-c3nc4ccc(OCCCNCc5ccccn5)cc4o3)cc2)nc1 [Compound 8] | 1.23 | 0.0197 | – | – | 7.82 |
| CCNCCCOc1ccc(-c2nc3ccc(OCCCNCC)cc3o2)cc1 [Compound 33] | 8.52 | 0.1 | – | – | – |

Source: patent publication US8354400B2, “Benzoxazole compounds and methods of use” (Eisai R&D Co., Ltd., priority 2008, dated 2013)
